# Test system: GA-primed murine splenocytes
# Assay: Tolerance method for assessing process variability
# [1] = microarray, splenocytes activated 24 hours
substance,measurement,setting,value
glatiramer acetate [GA],"AVG expression of SH3RF1, probe ILMN_2602597",[1],7.302
same,"AVG expression of SLC25A1, probe ILMN_2619846",[1],8.032
same,"AVG expression of SLCO3A1, probe ILMN_2663230",[1],8.007
same,"AVG expression of SMOX, probe ILMN_2597030",[1],8.19
same,"AVG expression of SPN, probe ILMN_2574982",[1],6.823
same,"AVG expression of STK4, probe ILMN_3004142",[1],11.07
same,"AVG expression of TARDBP, probe ILMN_3093089",[1],8.366
same,"AVG expression of TBCD, probe ILMN_2891506",[1],9.516
same,"AVG expression of TNF, probe ILMN_2899863",[1],8.846
same,"AVG expression of TNFAIP3, probe ILMN_1252202",[1],9.205
same,"AVG expression of TNIP1, probe ILMN_2417863",[1],10.34
same,"AVG expression of UBAC2, probe ILMN_2484838",[1],8.614
same,"AVG expression of UBAC2, probe ILMN_2949605",[1],10.08
same,"AVG expression of UBE2L6, probe ILMN_2431619",[1],8.561
same,"AVG expression of UCHL5, probe ILMN_1240153",[1],8.74
same,"AVG expression of VAMP4, probe ILMN_2516348",[1],8.312
same,"AVG expression of WDR68, probe ILMN_2546073",[1],7.546
same,"AVG expression of ZBP1, probe ILMN_1228653",[1],7.444
same,AVG expression CCND2,probe IIMN_2700166,11.38
same,AVG expression RFTN2,probe ILMN_1212653,7.109
same,AVG expression ZFP318,probe ILMN_1212982,9.704
same,AVG expression TXNIP,probe ILMN_1213609,11.89
same,AVG expression SGK1,probe ILMN_1213954,9.667
same,AVG expression IFITM1,probe ILMN_1214071,11.55
same,AVG expression SNX29,probe ILMN_1214294,7.713
same,AVG expression A530050E01RIK,probe ILMN_1214783,7.616
same,AVG expression IL24,probe ILMN_1214841,7.762
same,AVG expression HSD11B1,probe ILMN_1214998,8.421
same,AVG expression LOC100046608,probe ILMN_1215796,7.035
same,AVG expression CXCL9,probe ILMN_1215862,9.757
same,AVG expression APOE,probe ILMN_1216042,7.5268
same,AVG expression STIM1,probe ILMN_1216313,8.348
same,AVG expression TPCN1,probe ILMN_1217102,8.543
same,AVG expression IFITM1,probe ILMN_1217180,11.85
same,AVG expression PKIB,probe ILMN_1217389,11.19
same,AVG expression PRKACB,probe ILMN_1217408,11.88
same,AVG expression ITGAE,probe ILMN_1217629,7.553
same,AVG expression STAU2,probe ILMN_1217723,8.737
same,AVG expression ITK,probe ILMN_1217899,7.055
same,AVG expression D230007K08RIK,probe ILMN_1217913,9.225
same,AVG expression SCO1,probe ILMN_1218036,9.072
same,AVG expression TMIE,probe ILMN_1218037,8.752
same,AVG expression IFITM6,probe ILMN_1218181,6.28
same,AVG expression CD69,probe ILMN_1218240,11.83
same,AVG expression IL18R1,probe ILMN_1218525,7.946
same,AVG expression A630054M16RIK,probe ILMN_1218533,8.828
same,AVG expression LOC385615,probe ILMN_1218717,8.213
same,AVG expression EMB,probe ILMN_1218799,9.501
same,AVG expression 5031436O03RIK,probe ILMN_1219017,7.811
same,AVG expression LTK,probe ILMN_1219860,7.398
same,AVG expression LOC623121,probe ILMN_1219896,9.039
same,AVG expression EBI2,probe ILMN_1220101,11.29
same,AVG expression CTSG,probe ILMN_1220236,7.594
same,AVG expression TTC28,probe ILMN_1220397,7.127
same,AVG expression GM590,probe ILMN_1220788,8.022
same,AVG expression PSAT1,probe ILMN_1221048,10.49
same,AVG expression TTYH3,probe ILMN_1221311,7.858
same,AVG expression LOC100048841,probe ILMN_1221516,7.303
same,AVG expression ADCY7,probe ILMN_1221530,8.272
same,AVG expression ELA2,probe ILMN_1221700,6.367
same,AVG expression FCGRT,probe ILMN_1221819,8.525
same,AVG expression FAIM3,probe ILMN_1221820,13.69
same,AVG expression PAQR7,probe ILMN_1222036,6.448
same,AVG expression UGT1A10,probe ILMN_1222543,6.383
same,AVG expression ROGDI,probe ILMN_1222821,8.291
same,AVG expression INDO,probe ILMN_1223600,7.297
same,AVG expression SMPDL3A,probe ILMN_1224116,7.588
same,AVG expression SPSB1,probe ILMN_1224336,8.95
same,AVG expression LOC380797,probe ILMN_1224473,8.096
same,AVG expression E130113K22RIK,probe ILMN_1224945,7.685
same,AVG expression PRKCB,probe ILMN_1225085,11.14
same,AVG expression 4930519L02RIK,probe ILMN_1225132,7.525
same,AVG expression CDKN2D,probe ILMN_1225214,8.24
same,AVG expression FDPS,probe ILMN_1225730,12.65
same,AVG expression MFSD2,probe ILMN_1225764,8.49
same,AVG expression GAB3,probe ILMN_1226514,7.563
same,AVG expression E030007N04RIK,probe ILMN_1226755,8.626
same,AVG expression MAN2A2,probe ILMN_1226901,6.871
same,AVG expression D9ERTD392E,probe ILMN_1227277,9.413
same,AVG expression ITGB7,probe ILMN_1227434,9.885
same,AVG expression LOC386545,probe ILMN_1227570,8.23
same,AVG expression IL12RB1,probe ILMN_1227900,8.071
same,AVG expression GMFG,probe ILMN_1227907,10.95
same,AVG expression IFI30,probe ILMN_1228213,12.19
same,AVG expression A430106G13RIK,probe ILMN_1228804,6.595
same,AVG expression NGP,probe ILMN_1228832,8.125
same,AVG expression C330023M02RIK,probe ILMN_1228917,9.763
